{"source": "patent US9656959B2", "about": "“Substituted pyridines as sodium channel blockers” (Purdue Pharma L.P., priority 2010, dated 2017)", "target": "human Nav1.7 (Homo sapiens (Human), UniProt Q15858)", "sequence (Q15858 with tags, fused parts or gaps limits assumed)": "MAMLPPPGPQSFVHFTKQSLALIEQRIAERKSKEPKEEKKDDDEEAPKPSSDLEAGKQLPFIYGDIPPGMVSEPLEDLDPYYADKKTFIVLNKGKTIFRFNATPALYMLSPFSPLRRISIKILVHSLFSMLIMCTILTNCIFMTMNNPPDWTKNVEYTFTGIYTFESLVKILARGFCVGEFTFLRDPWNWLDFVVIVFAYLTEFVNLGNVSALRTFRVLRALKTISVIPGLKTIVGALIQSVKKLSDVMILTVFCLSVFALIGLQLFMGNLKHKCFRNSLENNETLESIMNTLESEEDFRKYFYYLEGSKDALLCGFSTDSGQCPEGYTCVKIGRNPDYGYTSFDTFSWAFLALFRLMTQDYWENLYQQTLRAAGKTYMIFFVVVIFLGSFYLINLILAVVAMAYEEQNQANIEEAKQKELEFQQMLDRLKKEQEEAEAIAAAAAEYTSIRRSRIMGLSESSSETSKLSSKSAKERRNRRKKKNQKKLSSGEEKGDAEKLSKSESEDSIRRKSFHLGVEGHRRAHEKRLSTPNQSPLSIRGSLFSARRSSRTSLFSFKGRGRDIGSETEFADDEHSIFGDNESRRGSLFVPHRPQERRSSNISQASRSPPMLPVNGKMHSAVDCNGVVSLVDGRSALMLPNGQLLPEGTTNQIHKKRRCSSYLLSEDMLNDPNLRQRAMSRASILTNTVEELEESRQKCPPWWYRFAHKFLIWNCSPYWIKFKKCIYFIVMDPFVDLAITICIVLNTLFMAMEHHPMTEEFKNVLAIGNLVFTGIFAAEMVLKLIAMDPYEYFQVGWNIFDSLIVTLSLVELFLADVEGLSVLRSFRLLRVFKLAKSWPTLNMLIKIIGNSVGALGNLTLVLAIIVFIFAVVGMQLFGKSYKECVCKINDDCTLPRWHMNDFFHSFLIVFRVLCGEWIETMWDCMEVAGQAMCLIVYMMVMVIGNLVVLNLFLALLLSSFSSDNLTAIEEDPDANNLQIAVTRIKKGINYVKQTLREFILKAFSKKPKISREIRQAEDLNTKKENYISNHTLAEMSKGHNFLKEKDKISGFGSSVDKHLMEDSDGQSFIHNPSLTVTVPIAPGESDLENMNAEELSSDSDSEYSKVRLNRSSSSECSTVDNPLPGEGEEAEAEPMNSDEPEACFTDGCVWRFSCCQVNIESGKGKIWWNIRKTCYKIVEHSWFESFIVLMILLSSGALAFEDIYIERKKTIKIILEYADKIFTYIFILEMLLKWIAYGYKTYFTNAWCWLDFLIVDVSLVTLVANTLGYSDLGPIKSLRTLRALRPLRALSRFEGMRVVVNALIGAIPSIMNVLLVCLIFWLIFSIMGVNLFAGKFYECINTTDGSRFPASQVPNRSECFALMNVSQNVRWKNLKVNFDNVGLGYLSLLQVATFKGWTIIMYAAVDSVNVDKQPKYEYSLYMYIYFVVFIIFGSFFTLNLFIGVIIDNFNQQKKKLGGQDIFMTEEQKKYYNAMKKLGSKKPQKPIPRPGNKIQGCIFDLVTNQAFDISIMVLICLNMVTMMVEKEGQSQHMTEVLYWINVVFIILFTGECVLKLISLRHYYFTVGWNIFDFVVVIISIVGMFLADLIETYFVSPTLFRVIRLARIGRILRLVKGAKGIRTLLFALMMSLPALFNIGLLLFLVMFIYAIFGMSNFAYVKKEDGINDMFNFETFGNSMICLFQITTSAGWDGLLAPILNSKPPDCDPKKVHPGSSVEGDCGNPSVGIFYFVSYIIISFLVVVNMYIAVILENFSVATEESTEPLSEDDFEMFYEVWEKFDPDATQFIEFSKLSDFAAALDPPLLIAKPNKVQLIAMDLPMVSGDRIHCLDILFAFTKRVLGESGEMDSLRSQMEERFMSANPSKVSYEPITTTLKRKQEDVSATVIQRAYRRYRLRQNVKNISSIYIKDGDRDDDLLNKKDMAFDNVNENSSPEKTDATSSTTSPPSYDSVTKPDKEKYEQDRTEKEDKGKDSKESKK", "test": "FLIPR or FLIPR TETRA sodium dye assay with KCl and test article pre-incubation", "type": "cell-based", "key": {"[1]": {"conditions": "read-out: Nav1.7 Activity (μM) FLIPR assay IC50 (μM) ± SEM"}, "[2]": {"conditions": "recombinant Nav1.7/HEK293 cells, CoroNa Green sodium dye, veratridine + scorpion venom agonists, ± SEM"}}, "note": "Where two headings read alike, the source gives them in different places.", "data": [{"smiles": "NC(=O)N[C@@H](CO)C(=O)Nc1cccc(-c2ccc(Oc3ccc(F)cc3)cc2)n1", "note": "[Compound 61, (S)-N-{6-[4-(4-Fluoro-phenoxy)-phenyl]-pyridin-2-yl}-3-hydroxy-2-ureido-propionamide]", "values": [{"measurement": "IC50", "setting": "[1]", "value": "0.12 ± 0.05", "unit": "µM"}]}, {"smiles": "O=C(N[C@@H](CO)C(=O)Nc1cccc(-c2ccc(Oc3ccc(F)cc3)cc2)n1)c1ccccn1", "note": "[Compound 54, Pyridine-2-carboxylic acid ((S)-1-{6-[4-(4-fluoro-phenoxy)-phenyl]-pyridin-2-ylcarbamoyl}-2-hydroxy-ethyl)-amide]", "values": [{"measurement": "IC50", "setting": "[1]", "value": "0.07 ± 0.02", "unit": "µM"}]}, {"smiles": "O=C(N[C@@H](CO)C(=O)Nc1cccc(-c2ccc(Oc3ccc(F)cc3)cc2)n1)c1ccncc1", "note": "[Compound 57, N-((S)-1-{6-[4-(4-Fluoro-phenoxy)-phenyl]-pyridin-2-ylcarbamoyl}-2-hydroxy-ethyl)-isonicotinamide]", "values": [{"measurement": "IC50", "setting": "[1]", "value": "0.16 ± 0.03", "unit": "µM"}]}, {"smiles": "CC(C)(C)OC(=O)N[C@@H](CO)C(=O)Nc1cccc(-c2ccc(Oc3ccc(F)cc3)cc2)n1", "note": "[Compound 59, ((S)-1-{6-[4-(4-Fluoro-phenoxy)-phenyl]-pyridin-2-ylcarbamoyl}-2-hydroxy-ethyl)-carbamic acid tert-butyl ester]", "values": [{"measurement": "IC50", "setting": "[1]", "value": "0.31 ± 0.07", "unit": "µM"}]}, {"smiles": "CC(C)(O)C(=O)N[C@@H](Cc1c[nH]cn1)C(=O)Nc1cccc(-c2ccc(Oc3ccc(F)cc3)cc2)n1", "note": "[Compound 37, (S)-N-(6-(4-(4-fluorophenoxy)phenyl)pyridin-2-yl)-2-(2-hydroxy-2-methylpropanamido)-3-(1H-imidazol-4-yl)propanamide]", "values": [{"measurement": "IC50", "setting": "[1]", "value": "0.12 ± 0.03", "unit": "µM"}]}, {"smiles": "CC(C)(C)OC(=O)N[C@@H](CC(N)=O)C(=O)Nc1cccc(-c2ccc(Oc3ccc(F)cc3)cc2)n1", "note": "[Compound 41, (S)-tert-butyl (4-amino-1-((6-(4-(4-fluorophenoxy)phenyl)pyridin-2-yl)amino)-1,4-dioxobutan-2-yl)carbamate]", "values": [{"measurement": "IC50", "setting": "[1]", "value": "0.066 ± 0.008", "unit": "µM"}]}, {"smiles": "COCC(=O)N[C@@H](Cc1c[nH]cn1)C(=O)Nc1cccc(-c2ccc(Oc3ccc(F)cc3)cc2)n1", "note": "[Compound 35, (S)-N-(6-(4-(4-fluorophenoxy)phenyl)pyridin-2-yl)-3-(1H-imidazol-4-yl)-2-(2-methoxyacetamido)propanamide]", "values": [{"measurement": "IC50", "setting": "[1]", "value": "0.13 ± 0.02", "unit": "µM"}]}, {"smiles": "NS(=O)(=O)Nc1cc(Cl)cc(-c2ccc(Oc3ccc(F)cc3)cc2)n1", "note": "[Compound 18, N-(4-chloro-6-(4-(4-fluorophenoxy)phenyl)pyridin-2-yl)sulfamide]", "values": [{"measurement": "IC50", "setting": "[1]", "value": "1.5 ± 0.3", "unit": "µM"}]}, {"smiles": "Cn1cnc(S(=O)(=O)Nc2cccc(-c3ccc(Oc4ccc(F)cc4)cc3)n2)c1", "note": "[Compound 29, N-(6-(4-(4-fluorophenoxy)phenyl)pyridin-2-yl)-1-methyl-1H-imidazole-4-sulfonamide]", "values": [{"measurement": "IC50", "setting": "[1]", "value": "0.32 ± 0.05", "unit": "µM"}]}, {"smiles": "O=C(N[C@@H](CO)C(=O)Nc1cccc(-c2ccc(Oc3ccc(F)cc3)cc2)n1)C1CC1", "note": "[Compound 55, Cyclopropanecarboxylic acid ((S)-1-{6-[4-(4-fluoro-phenoxy)-phenyl]-pyridin-2-ylcarbamoyl}-2-hydroxy-ethyl)-amide]", "values": [{"measurement": "IC50", "setting": "[1]", "value": "0.06 ± 0.006", "unit": "µM"}]}, {"smiles": "Cn1cnc(S(=O)(=O)Nc2cc([C@H](O)CO)cc(-c3ccc(Oc4ccc(F)cc4)cc3)n2)c1", "note": "[Compound 26, (S)-N-(4-(1,2-dihydroxyethyl)-6-(4-(4-fluorophenoxy)phenyl)pyridin-2-yl)-1-methyl-1H-imidazole-4-sulfonamide]", "values": [{"measurement": "IC50", "setting": "[2]", "value": "> 20", "unit": "µM"}]}, {"smiles": "CS(=O)(=O)N(C[C@H](O)CO)c1cc(Cl)cc(-c2ccc(Oc3ccc(F)cc3)cc2)n1", "note": "[Compound 17, (S)-N-(4-chloro-6-(4-(4-fluorophenoxy)phenyl)pyridin-2-yl)-N-(2,3-dihydroxypropyl)methanesulfonamide]", "values": [{"measurement": "IC50", "setting": "[1]", "value": "0.094 ± 0.03", "unit": "µM"}]}, {"smiles": "O=C1NCCN1CCNc1cc(Cl)cc(-c2ccc(Oc3ccc(F)cc3)cc2)n1", "note": "[Compound 64, 1-(2-((4-chloro-6-(4-(4-fluorophenoxy)phenyl)pyridin-2-yl)amino)ethyl)imidazolidin-2-one]", "values": [{"measurement": "IC50", "setting": "[1]", "value": "0.12 ± 0.01", "unit": "µM"}]}, {"smiles": "O=C(Nc1cccc(-c2ccc(Oc3ccc(C(F)(F)F)cn3)cc2)n1)C(O)CO", "note": "(centres unmarked) [Compound 96, 2,3-dihydroxy-N-(6-(4-((5-(trifluoromethyl)pyridin-2-yl)oxy)phenyl)pyridin-2-yl)propanamide]", "values": [{"measurement": "IC50", "setting": "[1]", "value": "> 20", "unit": "µM"}]}, {"smiles": "Cn1cnc(C[C@H](NC(=O)Nc2cccc(-c3ccc(Oc4ccc(F)cc4)cc3)n2)C(N)=O)c1", "note": "[Compound 99, (S)-2-(3-(6-(4-(4-fluorophenoxy)phenyl)pyridin-2-yl)ureido)-3-(1-methyl-1H-imidazol-4-yl)propanamide]", "values": [{"measurement": "IC50", "setting": "[1]", "value": "0.667 ± 0.162", "unit": "µM"}]}, {"smiles": "CC(C)(C)OC(=O)N[C@@H](CC(=O)Nc1cccc(-c2ccc(Oc3ccc(F)cc3)cc2)n1)C(N)=O", "note": "[Compound 40, (S)-tert-butyl (1-amino-4-((6-(4-(4-fluorophenoxy)phenyl)pyridin-2-yl)amino)-1,4-dioxobutan-2-yl)carbamate]", "values": [{"measurement": "IC50", "setting": "[1]", "value": "0.13 ± 0.03", "unit": "µM"}]}, {"smiles": "Cc1cc(C(=O)N[C@@H](CO)C(=O)Nc2cccc(-c3ccc(Oc4ccc(F)cc4)cc3)n2)no1", "note": "[Compound 58, 5-Methyl-isoxazole-3-carboxylic acid ((S)-1-{6-[4-(4-fluoro-phenoxy)-phenyl]-pyridin-2-ylcarbamoyl}-2-hydroxy-ethyl)-amide]", "values": [{"measurement": "IC50", "setting": "[1]", "value": "0.11 ± 0.04", "unit": "µM"}]}, {"smiles": "CC(C)C[C@H](NC(=O)CO)C(=O)Nc1cccc(-c2ccc(Oc3ccc(F)cc3)cc2)n1", "note": "[Compound 90, (S)-N-(6-(4-(4-fluorophenoxy)phenyl)pyridin-2-yl)-2-(2-hydroxyacetamido)-4-methylpentanamide]", "values": [{"measurement": "IC50", "setting": "[1]", "value": "0.07 ± 0.012", "unit": "µM"}]}, {"smiles": "CC(C)C(=O)N[C@@H](Cc1cn(C)cn1)C(=O)Nc1cccc(-c2ccc(Oc3ccc(F)cc3)cc2)n1", "note": "[Compound 82, (S)-N-(6-(4-(4-fluorophenoxy)phenyl)pyridin-2-yl)-2-isobutyramido-3-(1-methyl-1H-imidazol-4-yl)propanamide]", "values": [{"measurement": "IC50", "setting": "[1]", "value": "0.046 ± 0.005", "unit": "µM"}]}, {"smiles": "N[C@@H](Cc1c[nH]cn1)C(=O)Nc1cccc(-c2ccc(Oc3ccc(F)cc3)cc2)n1", "note": "[Compound 31, (S)-2-amino-N-(6-(4-(4-fluorophenoxy)phenyl)pyridin-2-yl)-3-(1H-imidazol-4-yl)propanamide]", "values": [{"measurement": "IC50", "setting": "[1]", "value": "0.18 ± 0.02", "unit": "µM"}]}, {"smiles": "CS(=O)(=O)Nc1cc([C@H](O)CO)cc(-c2ccc(Oc3ccc(F)cc3)cc2)n1", "note": "[Compound 24, (S)-N-(4-(1,2-dihydroxyethyl)-6-(4-(4-fluorophenoxy)phenyl)pyridin-2-yl)methanesulfonamide]", "values": [{"measurement": "IC50", "setting": "[1]", "value": "2.9 ± 0.8", "unit": "µM"}]}, {"smiles": "CS(=O)(=O)Nc1cccc(-c2ccc(Oc3ccc(F)cc3)cc2)n1", "note": "[Compound 27, N-(6-(4-(4-fluorophenoxy)phenyl)pyridin-2-yl)methanesulfonamide]", "values": [{"measurement": "IC50", "setting": "[1]", "value": "0.34 ± 0.05", "unit": "µM"}]}, {"smiles": "Nc1nc(O)cc(C(=O)Nc2cccc(-c3ccc(Oc4ccc(F)cc4)cc3)n2)n1", "note": "[Compound 65, 2-amino-N-(6-(4-(4-fluorophenoxy)phenyl)pyridin-2-yl)-6-hydroxypyrimidine-4-carboxamide]", "values": [{"measurement": "IC50", "setting": "[2]", "value": "> 20", "unit": "µM"}]}, {"smiles": "CC(C)C[C@H](NC(=O)C1CC1)C(=O)Nc1cc([C@H](O)CO)cc(-c2ccc(Oc3ccc(F)cc3)cc2)n1", "note": "[Compound 44, N-((S)-1-((4-((S)-1,2-dihydroxyethyl)-6-(4-(4-fluorophenoxy)phenyl)pyridin-2-yl)amino)-4-methyl-1-oxopentan-2-yl)cyclopropanecarboxamide]", "values": [{"measurement": "IC50", "setting": "[1]", "value": "0.059 ± 0.12", "unit": "µM"}]}, {"smiles": "Cn1cnc(C[C@H](NC(=O)CC(F)(F)F)C(=O)Nc2cccc(-c3ccc(Oc4ccc(F)cc4)cc3)n2)c1", "note": "[Compound 86, (S)-3,3,3-trifluoro-N-(1-((6-(4-(4-fluorophenoxy)phenyl)pyridin-2-yl)amino)-3-(1-methyl-1H-imidazol-4-yl)-1-oxopropan-2-yl)propanamide]", "values": [{"measurement": "IC50", "setting": "[1]", "value": "0.084 ± 0.007", "unit": "µM"}]}, {"smiles": "Cn1cnc2ccc(C(=O)Nc3cccc(-c4ccc(Oc5ccc(F)cc5)cc4)n3)cc21", "note": "[Compound 98, N-(6-(4-(4-fluorophenoxy)phenyl)pyridin-2-yl)-1-methyl-1H-benzo[d]imidazole-6-carboxamide]", "values": [{"measurement": "IC50", "setting": "[2]", "value": "> 20", "unit": "µM"}]}, {"smiles": "CC(C)C[C@H](NC(=O)c1ccccn1)C(=O)Nc1cc([C@H](O)CO)cc(-c2ccc(Oc3ccc(F)cc3)cc2)n1", "note": "[Compound 45, N-((S)-1-((4-((S)-1,2-dihydroxyethyl)-6-(4-(4-fluorophenoxy)phenyl)pyridin-2-yl)amino)-4-methyl-1-oxopentan-2-yl)picolinamide]", "values": [{"measurement": "IC50", "setting": "[1]", "value": "0.3 ± 0.07", "unit": "µM"}]}, {"smiles": "O=C(CO)N[C@@H](Cc1c[nH]cn1)C(=O)Nc1cccc(-c2ccc(Oc3ccc(F)cc3)cc2)n1", "note": "[Compound 36, (S)-N-(6-(4-(4-fluorophenoxy)phenyl)pyridin-2-yl)-2-(2-hydroxyacetamido)-3-(1H-imidazol-4-yl)propanamide]", "values": [{"measurement": "IC50", "setting": "[1]", "value": "0.14 ± 0.01", "unit": "µM"}]}, {"smiles": "CC(=O)N1CCC(C(=O)N[C@@H](Cc2c[nH]cn2)C(=O)Nc2cccc(-c3ccc(Oc4ccc(F)cc4)cc3)n2)CC1", "note": "[Compound 34, (S)-1-acetyl-N-(1-((6-(4-(4-fluorophenoxy)phenyl)pyridin-2-yl)amino)-3-(1H-imidazol-4-yl)-1-oxopropan-2-yl)piperidine-4-carboxamide]", "values": [{"measurement": "IC50", "setting": "[1]", "value": "0.58 ± 0.05", "unit": "µM"}]}, {"smiles": "CS(=O)(=O)Nc1cc(Cl)cc(-c2ccc(Oc3ccc(F)cc3)cc2)n1", "note": "[Compound 15, N-(4-chloro-6-(4-(4-fluorophenoxy)phenyl)pyridin-2-yl)methanesulfonamide]", "values": [{"measurement": "IC50", "setting": "[1]", "value": "0.26 ± 0.07", "unit": "µM"}]}, {"smiles": "CC(C)C[C@H](NC(=O)c1cccnc1)C(=O)Nc1cccc(-c2ccc(Oc3ccc(F)cc3)cc2)n1", "note": "[Compound 10, (S)-N-(1-((6-(4-(4-fluorophenoxy)phenyl)pyridin-2-yl)amino)-4-methyl-1-oxopentan-2-yl)nicotinamide]", "values": [{"measurement": "IC50", "setting": "[1]", "value": "0.091 ± 0.03", "unit": "µM"}]}, {"smiles": "O=C(Nc1cccc(-c2ccc(Oc3ccc(C(F)(F)F)cc3)cc2)n1)C(O)CO", "note": "(centres unmarked) [Compound 76, 2,3-dihydroxy-N-(6-(4-(4-(trifluoromethyl)phenoxy)phenyl)pyridin-2-yl)propanamide]", "values": [{"measurement": "IC50", "setting": "[1]", "value": "> 20", "unit": "µM"}]}, {"smiles": "O=S(=O)(Nc1cccc(-c2ccc(Oc3ccc(F)cc3)cc2)n1)C1CC1", "note": "[Compound 28, N-(6-(4-(4-fluorophenoxy)phenyl)pyridin-2-yl)cyclopropane Sulfonamide]", "values": [{"measurement": "IC50", "setting": "[1]", "value": "0.22 ± 0.07", "unit": "µM"}]}, {"smiles": "Cn1cnc(C[C@H](NC(=O)C(C)(C)C)C(=O)Nc2cccc(-c3ccc(Oc4ccc(F)cc4)cc3)n2)c1", "note": "[Compound 83, (S)-N-(6-(4-(4-fluorophenoxy)phenyl)pyridin-2-yl)-3-(1-methyl-1H-imidazol-4-yl)-2-pivalamidopropanamide]", "values": [{"measurement": "IC50", "setting": "[1]", "value": "0.02 ± 0.002", "unit": "µM"}]}, {"smiles": "CC(C)C[C@H](NC(=O)NC(C)C)C(=O)Nc1cccc(-c2ccc(Oc3ccc(F)cc3)cc2)n1", "note": "[Compound 11, (S)-N-(6-(4-(4-fluorophenoxy)phenyl)pyridin-2-yl)-2-(3-isopropylureido)-4-methylpentanamide]", "values": [{"measurement": "IC50", "setting": "[1]", "value": "0.086 ± 0.02", "unit": "µM"}]}]}
